Source: patent publication US6844345B2, “Piperazine derivatives” (priority 2001, dated 2005)
pEC50, pKi: −log10 of the molar value. Read-outs that look alike come from different tables or passages of the source.

Key:
5-HT2A receptor [1] = molecular target: T1, 5-HT2A receptor (Homo sapiens, UniProt P28223); experiment: Functional activity, FLIPR calcium assay in CHO cells expressing human 5-HT2A; type: cell-based; set-up: expressed in transfected cells; host or cells: CHO cells; conditions: for h5-HT2A Relative Efficacy: maximum fluorescent signal relative to 10 μM 5-HT (defined as 100%)
T1 sequence (P28223 whole entry): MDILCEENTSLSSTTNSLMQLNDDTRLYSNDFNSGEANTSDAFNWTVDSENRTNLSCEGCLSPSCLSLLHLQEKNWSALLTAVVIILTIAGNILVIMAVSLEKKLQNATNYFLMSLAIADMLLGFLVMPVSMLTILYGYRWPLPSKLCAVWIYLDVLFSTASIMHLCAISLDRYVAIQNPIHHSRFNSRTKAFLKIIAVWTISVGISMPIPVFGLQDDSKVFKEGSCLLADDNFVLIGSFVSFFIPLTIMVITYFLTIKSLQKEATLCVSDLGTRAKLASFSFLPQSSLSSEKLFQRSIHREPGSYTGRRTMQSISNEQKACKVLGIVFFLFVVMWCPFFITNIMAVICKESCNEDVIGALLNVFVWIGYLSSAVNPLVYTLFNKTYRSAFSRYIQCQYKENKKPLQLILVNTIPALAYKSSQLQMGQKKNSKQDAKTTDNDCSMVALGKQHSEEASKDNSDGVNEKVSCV
Experimental: (§1) The functional activity of compounds of formula (I) was assayed using a Fluorimetric Imaging Plate reader (FLIPR). CHO cells expressing the human 5-HT2C or human 5-HT2A receptors were counted and plated into standard 96 well microtitre plates on the day before testing to give a confluent monolayer. The cells were then dye loaded with the calcium sensitive dye, Fluo-3-AM. Unincorporated dye was removed using an automated cell washer to leave a total volume of 100 μL/well of assay buffer (Hanks balanced salt solution containing 20 mM Hepes and 2.5 mM probenecid). The drug (dissolved in 50 μL of the assay buffer) was added at a rate of 70 μL/sec to each well of the FLIPR 96 well plate during fluorescence measurements. The measurements were taken at 1 sec intervals and the maximum fluorescent signal was measured (approx. 10-15 secs after drug addition) and compared with the response produced by 10 μM 5-HT (defined as 100%) to which it was expressed as a percentage response (relative efficacy). Dose response curves were constructed using Graphpad Prism (Graph Software Inc.).

5-HT2C receptor [2] = molecular target: T2, 5-HT2C receptor (Homo sapiens, UniProt P28335); experiment: Functional activity, FLIPR calcium assay in CHO cells expressing human 5-HT2C; type: cell-based; set-up: expressed in transfected cells; host or cells: CHO cells; conditions: for h5-HT2c Relative Efficacy: maximum fluorescent signal relative to 10 μM 5-HT (defined as 100%)
T2 sequence (P28335 33-458): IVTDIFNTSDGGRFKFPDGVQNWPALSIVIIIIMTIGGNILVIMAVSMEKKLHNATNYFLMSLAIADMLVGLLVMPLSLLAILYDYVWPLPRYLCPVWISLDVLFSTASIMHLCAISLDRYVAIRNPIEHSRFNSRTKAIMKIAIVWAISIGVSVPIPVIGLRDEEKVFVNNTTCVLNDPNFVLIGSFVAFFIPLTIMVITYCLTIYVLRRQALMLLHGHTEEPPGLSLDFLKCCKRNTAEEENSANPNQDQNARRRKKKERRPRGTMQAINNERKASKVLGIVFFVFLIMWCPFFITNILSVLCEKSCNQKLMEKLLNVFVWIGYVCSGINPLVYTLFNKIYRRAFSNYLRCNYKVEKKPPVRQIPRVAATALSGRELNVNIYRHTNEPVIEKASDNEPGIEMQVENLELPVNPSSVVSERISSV
Experimental: as §1

human 5-HT2B receptors = molecular target: T3, human 5-HT2B receptors (Homo sapiens, UniProt P41595); experiment: Binding to 5-HT2B receptor, [3H]-5-HT radioligand, Method (b); conditions: human receptor in CHO cell line, read-out: Ki (2B)
T3 construct: expressed in transfected cells; host or cells: CHO cell line
T3 sequence (P41595 whole entry): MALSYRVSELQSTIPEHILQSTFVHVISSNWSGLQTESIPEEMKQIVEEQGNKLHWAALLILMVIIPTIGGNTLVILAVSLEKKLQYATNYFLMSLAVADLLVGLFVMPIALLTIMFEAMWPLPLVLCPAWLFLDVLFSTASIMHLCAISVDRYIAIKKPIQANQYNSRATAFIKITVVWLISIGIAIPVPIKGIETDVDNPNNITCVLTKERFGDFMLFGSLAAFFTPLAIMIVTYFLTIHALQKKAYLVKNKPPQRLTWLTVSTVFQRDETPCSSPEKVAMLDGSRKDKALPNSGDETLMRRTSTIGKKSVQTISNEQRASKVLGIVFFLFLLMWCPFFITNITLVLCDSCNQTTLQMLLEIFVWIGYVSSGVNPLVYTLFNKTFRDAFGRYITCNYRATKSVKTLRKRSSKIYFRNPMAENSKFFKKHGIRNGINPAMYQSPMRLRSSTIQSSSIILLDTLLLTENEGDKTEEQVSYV
Experimental: (§2) The binding of compounds of formula (I) to serotonin receptors was determined in vitro by standard methods. The preparations were investigated in accordance with the assays given hereinafter.
Method (b): For the binding to the 5-HT2B receptor the 5-HT2B receptors were radiolabeled with [^3H]-5-HT. The affinity of the compounds for human 5-HT2B receptors in a CHO cell line was determined according to the procedure of K. Schmuck, C. Ullmer, P. Engels and H. Lubbert, FEBS Lett., 1994, 342, 85-90.

5-HT2A receptor [3] = molecular target: T1, 5-HT2A receptor; experiment: Binding to 5-HT2A receptor, [125I]-DOI radioligand, Method (c); set-up: expressed in transfected cells; host or cells: CHO cell line; conditions: CHO cell line, read-out: Ki (2A)
Experimental: as §2
Method (c): For the binding to the 5-HT2A receptor the 5-HT2A receptors were radiolabeled with [^125I]-DOI. The affinity of the compounds for 5-HT2A receptors in a CHO cell line was determined according to the procedure of D. J. McKenna and S. J. Peroutka, J. Neurosci., 1989, 9, 3482-90.

5-HT2C receptor [4] = molecular target: T2, 5-HT2C receptor; experiment: Binding to 5-HT2C receptor, [3H]-5-HT radioligand, Method (a); set-up: expressed in transfected cells; host or cells: CHO cell line; conditions: CHO cell line, read-out: Ki (2C)
Experimental: as §2
Method (a): For the binding to the 5-HT2C receptor the 5-HT2C receptors were radiolabeled with [^3H]-5-HT. The affinity of the compounds for 5-HT2C receptors in a CHO cell line was determined according to the procedure of D. Hoyer, G. Engel and H. O. Kalkman, European J. Pharmacol., 1985, 118, 13-23.

[5] = FLIPR, CHO cells, Fluo-3-AM, read-out: h5-HT2A EC50
[6] = FLIPR, CHO cells, Fluo-3-AM, read-out: h5-HT2c EC50

| SMILES | melting point | pEC50 (5-HT2A receptor [1]; [5]) | h5-HT2A Relative Efficacy (5-HT2A receptor [1]) | pEC50 (5-HT2C receptor [2]; [6]) | h5-HT2c Relative Efficacy (5-HT2C receptor [2]) | also measured |
| --- | --- | --- | --- | --- | --- | --- |
| C[C@@H]1CNCc2cc3cccc(OC(F)(F)F)c3n21 [Example 17, (R)-4-Methyl-6-trifluoromethoxy-1,2,3,4-tetrahydro-pyrazino[1,2-a]indole] | 58 to 60 °C |  |  |  |  |  |
| Cc1c2n(c3c(C)c(Cl)ccc13)[C@H](C)CNC2.O=C(O)C(=O)O [Example 14, (R)-7-Chloro-4,6,10-trimethyl-1,2,3,4-tetrahydro-pyrazino[1,2-a]indole oxalate] |  | 6.27 | 34% | 9.40 | 88% |  |
| Cc1ccc(C)c2c1cc1n2[C@H](C)CNC1 [Example 21, (R)-4,6,9-Trimethyl-1,2,3,4-tetrahydro-pyrazino[1,2-a]indole] |  |  | 76% |  | 80% | pEC50 (5-HT2A receptor [1]): 6.92; pEC50 (5-HT2C receptor [2]): 8.30 |
| Cc1cc2c(cc1Br)cc1n2[C@H](C)CNC1.Cl | 241 °C (dec.) |  |  |  |  |  |
| C[C@@H]1CNCc2cc3cc(Br)c(F)cc3n21.Cl | 232 °C |  |  |  |  |  |
| Cc1ccc2cc3n(c2c1)[C@H](C)CNC3.Cl | 245 °C (dec.) |  |  |  |  |  |
| CCc1cccc2cc3n(c12)[C@H](C)CNC3 [Example 1, (R)-6-Ethyl-4-methyl-1,2,3,4-tetrahydro-pyrazino[1,2-a]indole] |  | 6.19 | 23% | 7.66 | 83% | pKi (human 5-HT2B receptors): 7.07; pKi (5-HT2A receptor [3]): 6.69; pKi (5-HT2C receptor [4]): 8.30 |
| C[C@@H]1CNCc2cc3ccc(C(F)(F)F)cc3n21 [Example 2, (R)-4-Methyl-7-trifluoromethyl-1,2,3,4-tetrahydro-pyrazino[1,2-a]indole] | 123 to 125 °C |  |  |  |  |  |
| C[C@@H]1CNCc2cc3c(Cl)cccc3n21.Cl | 234 to 237 °C (dec.) |  |  |  |  |  |
| C[C@@H]1CNCc2cc3ccc(Cl)cc3n21 [Example 20, (R)-7-Chloro-4-methyl-1,2,3,4-tetrahydro-pyrazino[1,2-a]indole] |  | 6.79 | 49% | 8.15 | 91% | pKi (human 5-HT2B receptors): 7.36; pKi (5-HT2A receptor [3]): 7.64; pKi (5-HT2C receptor [4]): 8.55 |
